In paper PMC6138237, “Machine intelligence decrypts β-lapachone as an allosteric 5-lipoxygenase inhibitor” (Chemical Science, 2018):
“And” between values parts separate entries of the source, which are not always exact repeats. Equal entries are not always repeated. Where two headings read alike, the source gives them in different places.

Legend:
5-LO [1] = target: T1, 5-LO (Homo sapiens, UniProt P09917); assay type: biochemical
T1 sequence (P09917 1-674): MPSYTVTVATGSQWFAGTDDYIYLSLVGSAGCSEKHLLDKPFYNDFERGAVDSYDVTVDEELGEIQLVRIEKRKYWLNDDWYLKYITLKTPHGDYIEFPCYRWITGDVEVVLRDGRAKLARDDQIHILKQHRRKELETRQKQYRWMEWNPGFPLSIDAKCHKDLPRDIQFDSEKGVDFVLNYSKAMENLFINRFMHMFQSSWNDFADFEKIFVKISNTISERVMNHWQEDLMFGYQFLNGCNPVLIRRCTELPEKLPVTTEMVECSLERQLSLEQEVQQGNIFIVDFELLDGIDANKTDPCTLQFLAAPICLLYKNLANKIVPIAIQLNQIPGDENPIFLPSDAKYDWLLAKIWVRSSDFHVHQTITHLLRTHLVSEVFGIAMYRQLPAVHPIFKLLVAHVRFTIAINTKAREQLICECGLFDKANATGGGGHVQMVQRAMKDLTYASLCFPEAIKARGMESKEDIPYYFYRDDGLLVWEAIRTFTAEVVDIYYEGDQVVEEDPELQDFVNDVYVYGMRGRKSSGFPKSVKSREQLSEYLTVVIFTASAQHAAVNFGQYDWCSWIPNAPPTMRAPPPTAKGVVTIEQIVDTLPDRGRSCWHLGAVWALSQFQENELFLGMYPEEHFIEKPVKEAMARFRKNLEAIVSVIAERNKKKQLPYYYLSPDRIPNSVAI

PDE5 = PDE5 (Homo sapiens, UniProt O76074); assay: Phosphodiesterase 5 inhibition assay, Cerep (scintillation counting); assay type: biochemical; settings: for percent inhibition at 2 µM: PDE5
TRPM8 [2] = target: T2, TRPM8 (Homo sapiens, UniProt Q7Z2W7); assay: TRPM8 functional agonist assay, Cerep (intracellular Ca2+); assay type: cell-based; settings: TRPM8 (agonist), 150 µM
T2 construct: Cerep, SA (fee-for-service assay) printed G018533 (citation number 33 glued on)

TRPM8 [3] = target: T2, TRPM8; assay: TRPM8 functional antagonist assay, Cerep (icilin 100 nM); assay type: cell-based
EGFR = EGFR (Homo sapiens, UniProt P00533); assay: ExpresS Diversity Kinase Profile, Cerep (LANCE): EGFR; assay type: biochemical
FGFR1 = FGFR1 (Homo sapiens, UniProt P11362); assay: ExpresS Diversity Kinase Profile, Cerep (LANCE): FGFR1; assay type: biochemical
Lck = Lck (Homo sapiens, UniProt P06239); assay: ExpresS Diversity Kinase Profile, Cerep (LANCE): Lck; assay type: biochemical
Abl = Abl (Homo sapiens, UniProt P00519); assay: ExpresS Diversity Kinase Profile, Cerep (LANCE): Abl; assay type: biochemical
Pim2 = Pim2 (Homo sapiens, UniProt Q9P1W9); assay: ExpresS Diversity Kinase Profile, Cerep (LANCE): Pim2; assay type: biochemical; settings: Flag: Interference
ROCK1 = ROCK1 (Homo sapiens, UniProt Q13464); assay: ExpresS Diversity Kinase Profile, Cerep (LANCE): ROCK1; assay type: biochemical
15-LO = 15-LO inhibition in intact human neutrophils; settings: read-out: IC50 (15-LO), without DTT
5-LO [4] = target: T1, 5-LO; assay: 5-LO product formation in neutrophil homogenates
EP2 = EP2 (Homo sapiens, UniProt P43116); assay: EP2 functional agonist assay, Cerep (cAMP, HTRF)
HL-60 cells = assay: HL-60 cell viability assay (Alamar Blue, 48 hours); settings: Homo sapiens, HL-60, 48 h
[5] = system: Staphylococcus aureus ATCC 25923; assay: Minimum inhibitory concentration assay, Staphylococcus aureus; settings: concentrations up to 50 µM
EP3 = target: T3, EP3 (Homo sapiens, UniProt P43115); assay: EP3 functional antagonist assay, Cerep (sulprostone 0.1 nM, impedance)
T3 sequence (P43115 1-390): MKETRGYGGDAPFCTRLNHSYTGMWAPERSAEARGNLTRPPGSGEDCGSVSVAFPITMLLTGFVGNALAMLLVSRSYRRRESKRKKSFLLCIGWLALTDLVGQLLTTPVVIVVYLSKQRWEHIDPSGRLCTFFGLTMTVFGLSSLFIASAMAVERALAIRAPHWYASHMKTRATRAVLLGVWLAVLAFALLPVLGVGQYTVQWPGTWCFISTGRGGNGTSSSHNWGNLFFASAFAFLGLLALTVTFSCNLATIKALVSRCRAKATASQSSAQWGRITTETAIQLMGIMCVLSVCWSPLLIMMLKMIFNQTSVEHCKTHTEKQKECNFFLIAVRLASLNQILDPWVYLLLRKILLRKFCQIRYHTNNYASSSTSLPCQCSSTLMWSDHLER

5-LO [6] = target: T1, 5-LO; assay: 5-LO product formation in intact human neutrophils stimulated with A23187 plus arachidonic acid
[7] = n = 2, read-out: % of control values, Mean
[8] = read-out: % of control values, 1st measurement
[9] = read-out: % of control values, 2nd measurement
[10] = n = 2, read-out: % Inhibition of control values, Mean
[11] = read-out: % Inhibition of control values, 1st measurement
[12] = read-out: % Inhibition of control values, 2nd measurement
[13] = Flag: Interference, read-out: % Inhibition of control values, 1st measurement
[14] = Flag: Interference, read-out: % Inhibition of control values, 2nd measurement
[15] = n = 2, Flag: Interference, read-out: % Inhibition of control values, Mean

Chain of Abl (P00519 whole entry): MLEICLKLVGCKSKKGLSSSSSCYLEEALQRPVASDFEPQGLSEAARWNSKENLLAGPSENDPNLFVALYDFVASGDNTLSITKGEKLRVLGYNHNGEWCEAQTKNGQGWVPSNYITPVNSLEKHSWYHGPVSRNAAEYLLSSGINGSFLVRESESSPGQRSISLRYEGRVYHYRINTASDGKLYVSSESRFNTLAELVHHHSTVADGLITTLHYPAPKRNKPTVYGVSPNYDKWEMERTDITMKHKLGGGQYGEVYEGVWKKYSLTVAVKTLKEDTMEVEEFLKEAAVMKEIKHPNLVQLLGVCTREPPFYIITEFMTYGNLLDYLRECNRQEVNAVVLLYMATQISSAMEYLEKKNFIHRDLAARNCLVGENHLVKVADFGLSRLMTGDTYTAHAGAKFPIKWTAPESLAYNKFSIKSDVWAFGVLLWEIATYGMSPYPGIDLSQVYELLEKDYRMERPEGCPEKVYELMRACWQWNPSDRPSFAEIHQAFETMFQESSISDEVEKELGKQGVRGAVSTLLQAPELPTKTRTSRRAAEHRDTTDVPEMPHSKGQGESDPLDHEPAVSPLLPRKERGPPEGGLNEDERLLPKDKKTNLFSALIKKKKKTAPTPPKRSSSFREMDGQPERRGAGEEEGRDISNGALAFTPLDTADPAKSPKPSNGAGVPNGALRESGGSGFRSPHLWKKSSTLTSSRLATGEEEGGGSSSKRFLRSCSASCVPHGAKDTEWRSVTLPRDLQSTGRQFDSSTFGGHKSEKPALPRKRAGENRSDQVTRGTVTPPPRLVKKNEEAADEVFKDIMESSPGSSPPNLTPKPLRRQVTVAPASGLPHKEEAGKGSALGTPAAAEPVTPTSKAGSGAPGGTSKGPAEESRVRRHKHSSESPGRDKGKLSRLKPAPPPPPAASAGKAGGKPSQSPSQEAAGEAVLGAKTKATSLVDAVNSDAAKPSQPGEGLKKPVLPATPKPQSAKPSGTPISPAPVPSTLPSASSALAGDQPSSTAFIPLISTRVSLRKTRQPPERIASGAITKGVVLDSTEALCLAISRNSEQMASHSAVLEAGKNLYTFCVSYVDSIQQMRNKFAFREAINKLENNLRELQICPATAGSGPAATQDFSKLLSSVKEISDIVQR
T2 sequence (Q7Z2W7 whole entry): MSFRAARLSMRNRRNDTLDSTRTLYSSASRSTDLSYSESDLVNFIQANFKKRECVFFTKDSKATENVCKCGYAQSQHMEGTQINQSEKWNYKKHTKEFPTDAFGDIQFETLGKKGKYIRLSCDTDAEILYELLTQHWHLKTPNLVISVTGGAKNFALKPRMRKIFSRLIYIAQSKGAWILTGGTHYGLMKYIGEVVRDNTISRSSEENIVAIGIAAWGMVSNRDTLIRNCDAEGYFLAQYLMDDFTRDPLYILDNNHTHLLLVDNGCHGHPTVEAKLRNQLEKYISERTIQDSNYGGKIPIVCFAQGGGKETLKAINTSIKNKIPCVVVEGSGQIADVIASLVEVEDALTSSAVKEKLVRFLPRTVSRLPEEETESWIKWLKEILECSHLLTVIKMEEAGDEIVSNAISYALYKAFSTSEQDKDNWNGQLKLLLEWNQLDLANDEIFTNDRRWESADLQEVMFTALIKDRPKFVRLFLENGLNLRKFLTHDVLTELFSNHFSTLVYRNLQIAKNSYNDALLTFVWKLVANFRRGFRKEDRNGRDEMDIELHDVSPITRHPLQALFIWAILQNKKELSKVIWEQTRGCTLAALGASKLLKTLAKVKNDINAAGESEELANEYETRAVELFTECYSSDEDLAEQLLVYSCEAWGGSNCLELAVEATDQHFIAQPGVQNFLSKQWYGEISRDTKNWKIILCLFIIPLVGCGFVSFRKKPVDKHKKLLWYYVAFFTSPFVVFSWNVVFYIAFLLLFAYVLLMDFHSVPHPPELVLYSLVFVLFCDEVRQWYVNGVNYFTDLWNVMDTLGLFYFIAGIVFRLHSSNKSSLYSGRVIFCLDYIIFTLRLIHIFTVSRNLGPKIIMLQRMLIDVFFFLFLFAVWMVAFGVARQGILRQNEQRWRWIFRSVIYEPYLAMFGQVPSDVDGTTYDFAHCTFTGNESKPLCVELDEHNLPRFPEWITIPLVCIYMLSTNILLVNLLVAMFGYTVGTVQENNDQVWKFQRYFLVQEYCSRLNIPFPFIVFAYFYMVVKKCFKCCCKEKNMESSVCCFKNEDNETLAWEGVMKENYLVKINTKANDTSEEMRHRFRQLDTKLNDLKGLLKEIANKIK
Chain of FGFR1 (P11362 22-822): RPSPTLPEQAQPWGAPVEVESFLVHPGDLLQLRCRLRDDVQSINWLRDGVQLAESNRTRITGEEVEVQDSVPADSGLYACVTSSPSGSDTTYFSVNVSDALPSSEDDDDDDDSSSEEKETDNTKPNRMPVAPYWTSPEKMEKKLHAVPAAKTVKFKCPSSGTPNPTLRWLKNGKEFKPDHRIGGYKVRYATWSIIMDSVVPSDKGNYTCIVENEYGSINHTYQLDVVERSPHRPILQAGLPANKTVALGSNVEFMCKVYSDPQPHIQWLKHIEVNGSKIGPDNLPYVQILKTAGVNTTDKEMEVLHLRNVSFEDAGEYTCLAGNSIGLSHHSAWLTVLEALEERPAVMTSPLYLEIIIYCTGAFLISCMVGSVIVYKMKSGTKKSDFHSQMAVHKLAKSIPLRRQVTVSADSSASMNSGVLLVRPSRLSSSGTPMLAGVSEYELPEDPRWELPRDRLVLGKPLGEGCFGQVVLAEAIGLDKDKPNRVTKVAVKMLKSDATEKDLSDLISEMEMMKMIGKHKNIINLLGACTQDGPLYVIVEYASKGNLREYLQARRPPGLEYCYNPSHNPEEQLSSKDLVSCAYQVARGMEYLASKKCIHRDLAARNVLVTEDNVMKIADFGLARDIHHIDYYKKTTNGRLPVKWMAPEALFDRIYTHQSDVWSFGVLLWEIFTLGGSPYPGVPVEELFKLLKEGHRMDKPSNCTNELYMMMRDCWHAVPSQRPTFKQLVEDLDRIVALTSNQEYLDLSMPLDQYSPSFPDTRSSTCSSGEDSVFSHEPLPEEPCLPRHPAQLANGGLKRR
Chain of EP2 (P43116 whole entry): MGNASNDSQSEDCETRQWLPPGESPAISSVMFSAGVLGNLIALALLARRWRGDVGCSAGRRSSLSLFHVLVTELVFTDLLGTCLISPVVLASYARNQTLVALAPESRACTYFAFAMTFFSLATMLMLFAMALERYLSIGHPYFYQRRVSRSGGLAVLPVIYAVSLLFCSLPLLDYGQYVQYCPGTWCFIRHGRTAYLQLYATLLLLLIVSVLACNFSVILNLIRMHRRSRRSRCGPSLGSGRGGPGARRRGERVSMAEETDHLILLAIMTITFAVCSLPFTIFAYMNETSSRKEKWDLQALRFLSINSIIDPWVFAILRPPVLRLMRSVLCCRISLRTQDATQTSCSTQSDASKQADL
Chain of Lck (P06239 whole entry): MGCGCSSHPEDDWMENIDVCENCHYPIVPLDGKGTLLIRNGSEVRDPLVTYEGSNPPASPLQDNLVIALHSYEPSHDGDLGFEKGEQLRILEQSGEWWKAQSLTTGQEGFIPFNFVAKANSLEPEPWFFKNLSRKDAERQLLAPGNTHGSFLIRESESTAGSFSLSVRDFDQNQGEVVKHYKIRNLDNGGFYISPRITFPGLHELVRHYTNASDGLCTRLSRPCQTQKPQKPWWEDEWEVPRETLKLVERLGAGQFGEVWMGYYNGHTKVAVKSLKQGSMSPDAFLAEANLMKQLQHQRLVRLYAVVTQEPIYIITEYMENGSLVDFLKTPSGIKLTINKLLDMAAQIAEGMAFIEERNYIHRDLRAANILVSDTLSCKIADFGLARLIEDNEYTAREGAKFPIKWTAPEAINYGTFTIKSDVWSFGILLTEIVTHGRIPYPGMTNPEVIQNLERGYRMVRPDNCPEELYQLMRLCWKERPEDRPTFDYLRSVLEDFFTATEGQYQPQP
Chain of EGFR (P00533 25-1210): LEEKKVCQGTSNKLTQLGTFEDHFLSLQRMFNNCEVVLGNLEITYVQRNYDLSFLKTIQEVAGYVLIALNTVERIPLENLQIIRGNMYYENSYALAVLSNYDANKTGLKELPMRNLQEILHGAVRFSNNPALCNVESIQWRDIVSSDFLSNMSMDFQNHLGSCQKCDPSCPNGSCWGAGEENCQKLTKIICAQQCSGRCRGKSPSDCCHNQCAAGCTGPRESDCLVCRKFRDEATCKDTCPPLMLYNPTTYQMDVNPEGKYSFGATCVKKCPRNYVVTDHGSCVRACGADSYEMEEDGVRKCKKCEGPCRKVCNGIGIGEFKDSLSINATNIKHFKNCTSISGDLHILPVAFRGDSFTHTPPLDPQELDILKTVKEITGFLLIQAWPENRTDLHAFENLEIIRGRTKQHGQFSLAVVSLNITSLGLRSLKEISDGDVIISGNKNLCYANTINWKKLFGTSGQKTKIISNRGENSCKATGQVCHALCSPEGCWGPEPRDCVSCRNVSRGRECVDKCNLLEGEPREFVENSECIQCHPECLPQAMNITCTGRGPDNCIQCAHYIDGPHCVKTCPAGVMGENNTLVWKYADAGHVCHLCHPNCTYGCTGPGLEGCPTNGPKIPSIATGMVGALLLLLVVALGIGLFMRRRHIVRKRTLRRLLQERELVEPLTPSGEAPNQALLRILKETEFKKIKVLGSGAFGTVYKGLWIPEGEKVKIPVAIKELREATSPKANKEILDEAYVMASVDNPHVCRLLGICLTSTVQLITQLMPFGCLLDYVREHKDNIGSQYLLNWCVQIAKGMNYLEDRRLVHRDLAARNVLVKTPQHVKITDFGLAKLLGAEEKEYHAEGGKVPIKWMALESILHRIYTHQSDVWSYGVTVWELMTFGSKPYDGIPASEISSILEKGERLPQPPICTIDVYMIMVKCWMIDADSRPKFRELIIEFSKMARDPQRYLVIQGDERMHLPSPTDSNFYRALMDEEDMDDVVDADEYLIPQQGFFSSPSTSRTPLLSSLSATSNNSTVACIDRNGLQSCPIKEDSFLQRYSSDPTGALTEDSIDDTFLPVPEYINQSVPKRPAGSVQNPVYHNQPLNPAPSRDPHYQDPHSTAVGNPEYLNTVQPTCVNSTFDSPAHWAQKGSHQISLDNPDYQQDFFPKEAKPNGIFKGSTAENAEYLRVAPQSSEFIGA

CC1(C)CCC2=C(O1)c1ccccc1C(=O)C2=O [β-Lapachone]
inhibition of 5-LO at varying arachidonic acid concentrations (5-LO [1]; AA 2.5–40 μM, n = 3): non-competitive inhibition | IC50 (5-LO [1]; IC50 (3 μg mL^–1, PC), competition with phosphatidylcholine 3 μg/mL, n = 3): 100 nM | IC50 (5-LO [1]; IC50 (30 μg mL^–1, PC), competition with phosphatidylcholine 30 μg/mL, n = 3): 1000 nM | IC50 (5-LO [1]; IC50 (with DTT), cell-free, reducing conditions, 1 mM dithiothreitol (DTT), n = 3): 240 nM | IC50 (5-LO [1]; IC50 (without Triton X100), cell-free, plus 1 mM DTT, no Triton X100, n = 3): 120 nM | IC50 (5-LO [1]; cell-free, absence of DTT, n = 3, read-out: IC50 (without DTT)): > 30000 nM | IC50 (5-LO [1]; cell-free, plus 1 mM DTT, 0.01% Triton X100, n = 3, read-out: IC50 (with Triton X100)): 90 nM | 5-LO activity upon wash-out (5-LO [1]; wash-out experiment, 10-fold dilution, plus 1 mM DTT): reinstated | IC50 (PDE5): > 10000 nM | percent inhibition at 2 µM (PDE5; [7]): -8.3% | percent inhibition at 2 µM (PDE5; [8]): -6.9% | percent inhibition at 2 µM (PDE5; [9]): -9.7% | activity against PDE5 (PDE5; screening against phosphodiesterase 5): inactivity | remaining activity at 150 µM (TRPM8 [2]; [7]): -20.4% | remaining activity at 150 µM (TRPM8 [2]; [8]): -20.4% | remaining activity at 150 µM (TRPM8 [2]; [9]): -20.4% | IC50 (TRPM8 [3]): > 100000 nM | inhibition at 150 µM (EGFR; [10]): 67.1% | inhibition at 150 µM (EGFR; [11]): 68.5% | inhibition at 150 µM (EGFR; [12]): 65.7% | inhibition at 150 µM (FGFR1; [13]): 51.5% | inhibition at 150 µM (FGFR1; [14]): 60.5% | inhibition at 150 µM (FGFR1; [15]): 56% | inhibition at 150 µM (Lck; [13]): -32.6% | inhibition at 150 µM (Lck; [14]): -37.7% | inhibition at 150 µM (Lck; [15]): -35.2% | inhibition at 150 µM (Abl; [10]): 42.4% | inhibition at 150 µM (Abl; [11]): 42.9% | inhibition at 150 µM (Abl; [12]): 41.8% | inhibition at 150 µM (Pim2; [11]): 79.6% | inhibition at 150 µM (Pim2; [12]): 82.6% | inhibition at 150 µM (ROCK1; [13]): -12.5% | inhibition at 150 µM (ROCK1; [14]): -3.2% | inhibition at 150 µM (ROCK1; [15]): -7.9% | IC50 (15-LO): > 30000 nM | IC50 (5-LO [4]; IC50 (with DTT), neutrophil homogenates with 1 mM DTT, n = 3): 90 nM and 85 nM | IC50 (5-LO [4]; IC50 (without DTT), neutrophil homogenates without DTT, n = 3): 5200 nM | IC50 (5-LO [4]; IC50, neutrophil homogenates with 1 mM dithiothreitol): 85.5 nM | remaining activity at 150 µM (EP2; [8]): 12.3% | remaining activity at 150 µM (EP2; [9]): 14.8% | remaining activity at 150 µM (EP2; read-out: % of control values, Mean): 13.5% | IC50 (HL-60 cells; read-out: IC50 (control)): 390 nM | IC50 (HL-60 cells; read-out: IC50 (differentiated)): 180 nM | phenotypic effects on Staphylococcus aureus [5]: No phenotypic effects | Kb (EP3): 22000 nM | ligand efficiency (LE) (EP3; EP3): 0.36 | IC50 (EP3; Experimental –log(IC50 or KD), EP3): 20000 nM | IC50 (EP3; IC50, EP3 concentration–inhibition curve, n = 2): 63000 nM | IC50 (5-LO [6]; IC50 (5-LO), intact human neutrophils, without DTT, n = 3): 8600 nM | IC50 (5-LO [6]; IC50, intact human neutrophils supplemented with 1 mM DTT, n = 4): 420 nM
